Results on 61 molecules are retold here after the SangsterLogP compilation.

This data set can be described thus: method code SF, from DOI: 10.1039/p29920001643.
Take `CC(=O)Nc1nonc1N`: the logP (in general, the decadic logarithm of the partition coefficient of the neutral form, usually between octanol and water) is -0.23.

With `CC(=O)Nc1nonc1C`, the logP was determined as 0.17.

`Cc1nsnc1C` gave a logP of 1.28.

With `Cc1c(S(=O)(=O)c2ccccc2)no[n+]1[O-]`, the logP is 2.03.

In the case of `Clc1nonc1-c1ccccc1`, the logP stood at 3.2.

In turn, `Cc1nonc1S(=O)(=O)c1ccccc1` returned a logP of 2.36.

Molecule `OCc1nonc1-c1ccccc1` had a logP of 1.92.

For `Cc1nonc1-c1ccccc1`, the log partition coefficient (logP) worked out at 2.59.

In turn, `Cc1nonc1C` showed a logP of 0.71.

The molecule `Nc1nonc1N` registered a logP of -0.49.

`CNC(=O)Nc1nonc1C`: the logP was 0.3.

`[O-][n+]1onc(-c2ccccc2)c1CO`: the logP was found to be 1.77.

The molecule `COC(=O)c1c(C)no[n+]1[O-]` registered a logP of 0.69.

In turn, `O=Cc1c(-c2ccccc2)no[n+]1[O-]` gave a logP of 2.92.

As to `c1ccc(-c2nonc2-c2ccccc2)cc1`, the logP came out at 3.83.

The molecule `CC(=O)c1no[n+]([O-])c1C` displayed a log partition coefficient (logP) of 0.98.

The molecule `c1cnon1` showed a logP of 0.16.

As for `Cc1no[n+]([O-])c1S(=O)c1ccccc1` (stereo unspecified), the logP amounted to 1.75.

The molecule `[O-][n+]1onc(Cc2ccccc2)c1Cc1ccccc1` registered a logP of 3.65.

For the molecule `Cc1no[n+]([O-])c1N`, the logP was -0.32.

Consider `Cc1c(C(N)=O)no[n+]1[O-]`, for which the logP turned out to be 0.03.

As to `[O-][n+]1onc2ccccc21`, the logP is 1.43.

`Cc1c(Cl)no[n+]1[O-]` registered a logP of 1.02.

As for `Cc1no[n+]([O-])c1C=O`, the logP is 1.29.

Turning to `Cc1nonc1[N+](=O)[O-]`, the logP stood at 0.97.

Consider `Nc1nonc1-c1ccccc1`, for which the logP is 1.81.

In the case of `CCCc1nonc1C`, the logP is 1.71.

On to `Cc1no[n+]([O-])c1Cl`, for which the logP was 0.9.

The molecule `Cc1nonc1Sc1ccccc1` came in with a logP of 2.92.

The molecule `O=[N+]([O-])c1nonc1-c1ccccc1` yielded a logP of 2.63.

`Cc1no[n+]([O-])c1Cc1ccccc1` displayed a logP of 2.22.

`[O-][n+]1onc(Cl)c1-c1ccccc1` returned a logP of 2.7.

With `c1ccc2nsnc2c1`, the logP worked out at 1.98.

As for `Cc1no[n+]([O-])c1C(N)=O`, the logP was 0.36.

As to `Cc1nonc1N`, the logP stood at 0.09.

Consider `O=Cc1no[n+]([O-])c1-c1ccccc1`, for which the logP was found to be 2.61.

As to `Cc1no[n+]([O-])c1-c1ccccc1`, the logP stood at 2.16.

In turn, `Cc1c(-c2ccccc2)no[n+]1[O-]` registered a logP of 2.17. This logP and that of the molecule before are within 0.2 log units of each other.

On to `Nc1nonc1NC(=O)c1ccccc1`, for which the logP was determined as 1.41.

With `Cc1no[n+]([O-])c1Sc1ccccc1`, the logP amounted to 2.74.

In the case of `COC(=O)c1no[n+]([O-])c1C`, the logP was determined as 0.56.

`[O-][n+]1onc(CO)c1-c1ccccc1` gave a logP of 1.64.

Regarding `CCc1nonc1C`, the logP was determined as 1.18.

The molecule `Cc1c(N)no[n+]1[O-]` yielded a logP of -0.17.

`CNC(=O)c1nonc1C`: the logP amounted to 0.56.

As to `[O-][n+]1onc(-c2ccccc2)c1-c1ccccc1`, the logP came out at 3.64.

On to `CC(=O)c1c(C)no[n+]1[O-]`, for which the logP turned out to be 0.8.

The molecule `CCS(=O)(=O)c1no[n+]([O-])c1C` yielded a logP of 0.65.

`Cc1nonc1S(=O)c1ccccc1` (stereo unspecified) displayed a logP of 1.76.

For `Cc1nonc1C(N)=O`, the logP worked out at 0.31.

`Nc1no[n+]([O-])c1-c1ccccc1` showed a logP of 1.47.

Turning to `Cc1no[n+]([O-])c1C`, the logP was determined as 0.23.

On to `Cc1c(C=O)no[n+]1[O-]`, for which the log partition coefficient (logP) is 1.02.

In turn, `Cc1c(Cc2ccccc2)no[n+]1[O-]` had a logP of 2.08.

`Cc1nonc1Cc1ccc([N+](=O)[O-])cc1`: the logP worked out at 2.21.

For the molecule `Nc1c(-c2ccccc2)no[n+]1[O-]`, the logP amounted to 1.42.

`CCNc1nonc1N` displayed a logP of 0.51.

Regarding `c1ccc2nonc2c1`, the logP worked out at 1.69.

`Cc1c(S(=O)c2ccccc2)no[n+]1[O-]` (stereo unspecified): the logP worked out at 1.5.

`COC(=O)c1nonc1C` had a logP of 0.94.

As for `COC(=O)Nc1nonc1C`, the logP was determined as 0.42.
